Where a name gives a salt, the structure may show the parent alone.

The assay addresses T1, CETP (Homo sapiens, UniProt P11597).
T1 construct: The donor lipoprotein obtained above was added to plasma of healthy subject; from tissue; host or cells: whole plasma of healthy subject
T1 sequence (P11597 18-493): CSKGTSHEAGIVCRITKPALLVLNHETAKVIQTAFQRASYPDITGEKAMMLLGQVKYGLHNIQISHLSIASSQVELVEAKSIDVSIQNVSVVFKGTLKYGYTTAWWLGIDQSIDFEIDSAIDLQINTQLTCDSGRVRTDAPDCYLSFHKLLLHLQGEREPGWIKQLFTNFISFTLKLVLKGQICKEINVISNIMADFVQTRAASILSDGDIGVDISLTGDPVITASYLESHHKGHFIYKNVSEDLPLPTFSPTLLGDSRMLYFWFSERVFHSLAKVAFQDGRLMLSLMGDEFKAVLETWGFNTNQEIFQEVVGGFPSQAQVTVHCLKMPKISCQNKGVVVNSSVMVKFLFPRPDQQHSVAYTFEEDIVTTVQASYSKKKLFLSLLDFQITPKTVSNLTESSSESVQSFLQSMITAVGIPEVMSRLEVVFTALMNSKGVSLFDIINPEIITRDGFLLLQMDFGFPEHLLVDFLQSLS
Description: Inhibitory effect in vitro on CETP activity in total plasma. The following applies: plasma of healthy subject with [3H]CE-HDL3, 37° C., 4 hr; average values. Type of assay: biochemical. The protocol:
Potassium bromide (KBr) was added to plasma (40 mL) of healthy subject and the mixture was adjusted to have a specific density d=1.125 g/mL. The mixture was subjected to density gradient centrifugation (227,000×g, 4° C., 17 hr) and a fraction showing a specific density of d>1.125 g/mL (HDL3 fraction) was harvested. The obtained fraction was dialyzed against PBS solution [10 mmol/L Na2HPO4; 10 mmol/L NaH2PO4; 0.15 mol/L NaCl; […] (pH 7.4)]. Then, tritium-labeled cholesterol (37 MBq) was dissolved in 95% ethanol, gradually added to the above-mentioned HDL3 fraction with stirring and incubated at 37° C. for 18 hr. [By this operation, tritium-labeled cholesterol was esterified by the action of lecithin acyl transferase (LCAT) present on the HDL3 surface and taken up into HDL3 as tritium-labeled cholesteryl ester ([^3H]CE)]. After incubation, KBr was added, the mixture was adjusted to have a specific density d=1.21 g/mL, subjected to density gradient centrifugation (227,000×g, 4° C., 17 hr) and a fraction of specific density […] was harvested. The obtained fraction was dialyzed against the aforementioned PBS solution to give HDL3 incorporating [^3H]CE ([^3H]CE-HDL3, specific density: 1.125<d<1.21, specific activity: 10,000 dpm/μL), which was used as a donor lipoprotein.
The donor lipoprotein obtained above was added to plasma of healthy subject to prepare a [^3H]CE-HDL3-containing plasma (1,000 dpm/μL). The compound was dissolved in dimethyl formamide. A solution of the compound or a solvent alone (2 μL) and the [^3H]CE-HDL3-containing plasma (100 μL) were added into a microtube, and this was incubated at 37° C. or 4° C. for 4 hr. After ice-cooling, TBS solution [100 μL, 20 mmol/L Tris; 0.15 mol/L NaCl (pH 7.4)] containing 1 mol/L magnesium chloride and 2% dextran sulfate was added to each microtube and the mixture was thoroughly stirred. After keeping at 4° C. for 30 min, the mixture was centrifuged (10,000×g, 4° C., 10 min), and the radioactivity in the obtained supernatant (HDL fraction) was measured with a scintillation counter. […] The concentration of the compound necessary for inhibiting the CETP activity by 50% was calculated as an IC50 value.
Take `CCN(CCCCC(=O)OC)c1cc2c(cc1CN(Cc1cc(C#N)cc(C(F)(F)F)c1)c1nnn(C)n1)CCC2.Cl` [Example 36, hydrochloride]: the IC50 (usually the point on the concentration scale where inhibition reaches its midpoint) was determined as 0.34 µM. For `CCN(CC1CCCC1)c1cc2c(cc1CN(Cc1cc(C(F)(F)F)cc(C(F)(F)F)c1)c1ncn(C)n1)CCC2` [Example 12, N-[3,5-bis(trifluoromethyl)benzyl]-N-[6-(N′-cyclopentylmethyl-N′-ethylamino)indan-5-ylmethyl]-(1-methyl-1H-[1,2,4]triazol-3-yl)amine] the value was 0.25 µM. For `CCN(C[C@H]1CC[C@H](C(=O)O)CC1)c1cc2c(cc1CN(Cc1cc(C(F)(F)F)cc(C(F)(F)F)c1)c1noc(C)n1)CCC2` [Example 82, trans-4-{[N-(6-{[N′-[3,5-bis(trifluoromethyl)benzyl]-N′-(5-methyl-[1,2,4]oxadiazol-3-yl)amino]methyl}indan-5-yl)-N-ethylamino]methyl}cyclohexanecarboxylic acid] the value was 0.59 µM. In the case of `CCN(CCCCC(=O)O)c1cc2c(cc1CN(Cc1cc(C(F)(F)F)cc(C(F)(F)F)c1)c1cc(C)no1)CCCC2` [Example 78, 5-[N-(3-{[N′-[3,5-bis(trifluoromethyl)benzyl]-N′-(3-methylisoxazol-5-yl)amino]methyl}-5,6,7,8-tetrahydronaphthalen-2-yl)-N-ethylamino]pentanoic acid hydrochloride] it was 0.32 µM.

Molecule `CCN(CC1CCCC1)c1cc2c(cc1CN(Cc1cc(C#N)cc(C(F)(F)F)c1)c1ccccc1)CCC2` [Example 13, 3-({N-[6-(N′-cyclopentylmethyl-N′-ethylamino)indan-5-ylmethyl]-N-phenylamino}methyl)-5-trifluoromethylbenzonitrile] had an IC50 of 0.58 µM. Against the preceding molecule, the IC50 is about 1.8-fold higher.

Regarding `CCN(CCC(C)(C)CC(=O)O)c1ccc(OC(F)(F)F)cc1CN(Cc1cc(C(F)(F)F)cc(C(F)(F)F)c1)c1nnn(C)n1` [Example 104, 5-[N-(2-{[N′-[3,5-bis(trifluoromethyl)benzyl]-N′-(2-methyl-2H-tetrazol-5-yl)amino]methyl}-4-trifluoromethoxyphenyl)-N-ethylamino]-3,3-dimethylpentanoic acid hydrochloride], half-maximal inhibition (IC50) required 0.35 µM. For `CCN(CCCCC(=O)O)c1cc2c(cc1CN(Cc1cc(C#N)cc(C(F)(F)F)c1)c1nnn(C)n1)CCCC2` [Example 81, 5-[N-(3-{[N′-(3-cyano-5-trifluoromethylbenzyl)-N′-(2-methyl-2H-tetrazol-5-yl)amino]methyl}-5,6,7,8-tetrahydronaphthalen-2-yl)-N-ethylamino]pentanoic acid hydrochloride] the value was 0.33 µM. For `CCN(CCC(C)(C)CC(=O)O)c1cc2c(cc1CN(Cc1cc(C(F)(F)F)cc(C(F)(F)F)c1)c1ccn(C)n1)CCC2` [Example 102, 5-[N-(6-{[N′-[3,5-bis(trifluoromethyl)benzyl]-N′-(1-methyl-1H-pyrazol-3-yl)amino]methyl}indan-5-yl)-N-ethylamino]-3,3-dimethylpentanoic acid] the value was 0.59 µM.

`CCN(C[C@H]1CC[C@H](C(=O)O)CC1)c1cc2c(cc1CN(Cc1cc(C#N)cc(C(F)(F)F)c1)c1ncn(C)n1)CCCC2` [Example 70, trans-4-{[N-(3-{[N′-(3-cyano-5-trifluoromethylbenzyl)-N′-(1-methyl-1H-[1,2,4]triazol-3-yl)amino]methyl}-5,6,7,8-tetrahydronaphthalen-2-yl)-N-ethylamino]methyl}cyclohexanecarboxylic acid] displayed an IC50 of 0.54 µM.

`CCN(C[C@H]1CC[C@H](CCC(=O)O)CC1)c1ccc(OC(F)(F)F)cc1CN(Cc1cc(C(F)(F)F)cc(C(F)(F)F)c1)c1nnn(C)n1` [Example 135, trans-3-(4-{[N-(2-{[N′-[3,5-bis(trifluoromethyl)benzyl]-N′-(2-methyl-2H-tetrazol-5-yl)amino]methyl}-4-trifluoromethoxyphenyl)-N-ethylamino]methyl}cyclohexyl)propionic acid hydrochloride]: the IC50 came to 0.22 µM.

The values are drawn from patent US7807701B2, “Dibenzylamine compounds and pharmaceutical use thereof” (Japan Tobacco Inc., priority 2002, dated 2010).
